Usually IC50 stands for the midpoint of a concentration-inhibition curve. The low end stands for higher potency, the high end for lower potency.

Counter-ions that a name gives are not always drawn.

Data on 13 compounds can be found in US8906914B2, “Ethylene diamine modulators of fatty acid hydrolase” (priority 2009, dated 2014).

The target in one assay is T1, Rat FAAH-1 (Rattus norvegicus, UniProt P97612).
T1 construct: expressed in transfected cells
T1 sequence (P97612 1-579): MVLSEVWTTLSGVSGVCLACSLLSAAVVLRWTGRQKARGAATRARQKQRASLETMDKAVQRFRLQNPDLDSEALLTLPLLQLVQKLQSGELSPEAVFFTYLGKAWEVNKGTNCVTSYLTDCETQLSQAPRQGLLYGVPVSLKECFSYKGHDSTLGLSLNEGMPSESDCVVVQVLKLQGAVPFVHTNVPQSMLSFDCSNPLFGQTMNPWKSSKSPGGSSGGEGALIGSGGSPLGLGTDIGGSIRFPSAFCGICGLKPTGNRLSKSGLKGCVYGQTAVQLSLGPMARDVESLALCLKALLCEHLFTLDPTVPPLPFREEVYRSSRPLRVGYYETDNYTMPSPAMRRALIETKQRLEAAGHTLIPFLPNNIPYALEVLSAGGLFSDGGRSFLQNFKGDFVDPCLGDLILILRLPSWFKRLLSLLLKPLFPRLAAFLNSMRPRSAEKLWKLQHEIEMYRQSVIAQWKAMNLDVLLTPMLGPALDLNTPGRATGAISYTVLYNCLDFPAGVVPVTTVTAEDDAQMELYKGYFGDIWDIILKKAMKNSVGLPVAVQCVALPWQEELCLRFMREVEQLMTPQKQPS
The assay is described as follows: Rat FAAH-1 assay (Assay Method 2), 3H-anandamide hydrolysis in cell homogenate. The assay is classed as biochemical. Here is the method: A. Transfection of Cells with Rat FAAH-1
(§1) A 10-cm tissue culture dish with a confluent monolayer of SK-N-MC cells was split 2 days (d) prior to transfection. Using sterile technique, the media was removed and the cells were detached from the dish by the addition of trypsin. One fifth of the cells were then placed onto a new 10-cm dish. Cells were grown in a 37° C. incubator with 5% CO2 in Minimal Essential Media Eagle with 10% Fetal Bovine Serum. After 2 d, cells were approximately 80% confluent. These cells were removed from the dish with trypsin and pelleted in a clinical centrifuge. The pellet was re-suspended in 400 μL complete media and transferred to an electroporation cuvette with a 0.4 cm gap between the electrodes. Supercoiled rat FAAH cDNA (1 μg) was added to the cells and mixed. The voltage for the electroporation was set at 0.25 kV, and the capacitance was set at 960 μF. After electroporation, the cells were diluted into complete media (10 mL) and plated onto four 10-cm dishes. Because of the variability in the efficiency of electroporation, four different concentrations of cells were plated. The ratios used were 1:20, 1:10, and 1:5, with the remainder of the cells being added to the fourth dish. The cells were allowed to recover for 24 h before adding the selection media (complete media with 600 μg/mL G418). After 10 d, dishes were analyzed for surviving colonies of cells. Dishes with well-isolated colonies were used. Cells from individual colonies were isolated and tested.
(§2) The assay mixture consisted of 50 μL of the cell homogenate, 10 μL of the test compound, and 40 μL of anandamide [1-^3H-ethanolamine] (^3H-AEA, Perkin-Elmer, 10.3 Ci/mmol), which was added last, for a final tracer concentration of 80 nM. The reaction mixture was incubated at rt for 1 h. During the incubation, 96-well Multiscreen filter plates (catalog number MAFCNOB50; Millipore, Bedford, Mass., USA) were loaded with 25 μL of activated charcoal (Multiscreen column loader, catalog number MACL09625, Millipore) and washed once with 100 μL of MeOH. Also during the incubation, 96-well DYNEX MicroLite plates (catalog number NL510410) were loaded with 100 μL of MicroScint40 (catalog number 6013641, Packard Bioscience, Meriden, Conn., USA). After the 1 h incubation, 60 μL of the reaction mixture were transferred to the charcoal plates, which were then assembled on top of the DYNEX plates using Centrifuge Alignment Frames (catalog number MACF09604, Millipore). The unbound labeled ethanolamine was centrifuged through to the bottom plate (5 min at 2000 rpm), which was preloaded with the scintillant, as described above. The plates were sealed and left at rt for 1 h before counting on a Hewlett Packard TopCount.
(§3) Where activity is shown as greater than (>) a particular value, the value is the solubility limit of the compound in the assay medium or the highest concentration tested in the assay.

The target in another assay is T2, FAAH (Homo sapiens, UniProt O00519).
T2 sequence (O00519 1-579): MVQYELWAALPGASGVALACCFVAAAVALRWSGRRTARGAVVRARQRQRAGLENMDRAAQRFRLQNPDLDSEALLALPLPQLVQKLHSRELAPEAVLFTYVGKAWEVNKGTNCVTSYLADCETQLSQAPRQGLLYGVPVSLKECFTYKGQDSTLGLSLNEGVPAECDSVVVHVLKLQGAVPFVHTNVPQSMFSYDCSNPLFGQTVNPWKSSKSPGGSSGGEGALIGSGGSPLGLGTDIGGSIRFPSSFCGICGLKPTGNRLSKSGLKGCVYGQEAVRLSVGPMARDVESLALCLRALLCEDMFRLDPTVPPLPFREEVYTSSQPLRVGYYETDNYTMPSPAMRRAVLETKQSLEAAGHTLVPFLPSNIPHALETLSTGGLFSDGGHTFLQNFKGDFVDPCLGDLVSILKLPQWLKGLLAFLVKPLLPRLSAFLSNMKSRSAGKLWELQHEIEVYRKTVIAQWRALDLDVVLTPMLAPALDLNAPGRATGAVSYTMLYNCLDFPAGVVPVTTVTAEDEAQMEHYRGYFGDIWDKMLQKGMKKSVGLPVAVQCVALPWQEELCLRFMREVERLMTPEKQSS
Kind of assay: Human FAAH assay (Assay Method 1), 3H-anandamide hydrolysis in cell homogenate. The arrangement: expressed in transfected cells; alternatively T84 frozen cell pellets (endogenous FAAH). The format is biochemical. As to the method:
A. Transfection of Cells with Human FAAH
as §1, with “Supercoiled human” for “Supercoiled rat”
as §2, with “[1-3H-ethanolamine]” for “[1-^3H-ethanolamine]”
as §3

On to `N[C@@H](CNc1cc(-c2ccc(OCC(F)(F)F)cc2)ncn1)c1ccccc1` [Example 20, (1R)-1-Phenyl-N^2-{6-[4-(2,2,2-trifluoroethoxy)phenyl]pyrimidin-4-yl}ethane-1,2-diamine hydrochloride acid salt], for which the IC50 against Rat FAAH-1 is 2000 nM; against FAAH, 130 nM.
Regarding `N#Cc1ccc([C@@H](N)CNc2cc(-c3ccc(C(F)(F)F)c(Cl)c3)ncn2)cc1` [Example 34, (1R)-4-{1-Amino-2-[6-(3-chloro-4-trifluoromethyl-phenyl)-pyrimidin-4-ylamino]-ethyl}-benzonitrile], the figures for the IC50 at Rat FAAH-1 and against FAAH were 130 nM and 77 nM, respectively.
Turning to `N[C@@H](CNc1cc(-c2ccc(C(F)(F)F)c(Cl)c2)ncn1)c1ccc(C(F)(F)F)cc1` [Example 30, (1R)—N^2-[6-(3-Chloro-4-trifluoromethyl-phenyl)-pyrimidin-4-yl]-1-(4-trifluoromethyl-phenyl)-ethane-1,2-diamine], the results for the IC50 against Rat FAAH-1 and on FAAH were 52 nM and 160 nM, respectively.
For the compound `CSc1ccc([C@@H](N)CNc2cc(-c3ccc(C(F)(F)F)c(Cl)c3)ncn2)cc1` [Example 54, (1R)—N^2-[6-(3-Chloro-4-trifluoromethyl-phenyl)-pyrimidin-4-yl]-1-(4-methylsulfanyl-phenyl)-ethane-1,2-diamine], the IC50 against Rat FAAH-1 was found to be 150 nM; at FAAH, 220 nM.
As for `N[C@@H](CNc1cc(-c2ccc3c(c2)OC(F)(F)O3)ncn1)c1ccccc1` [Example 24, (1R)—N^2-[6-(2,2-Difluoro-1,3-benzodioxol-5-yl)pyrimidin-4-yl]-1-phenylethane-1,2-diamine hydrochloride acid salt], the IC50 turned out to be 1000 nM at Rat FAAH-1 and 270 nM against FAAH.
As for `N#Cc1cc([C@@H](N)CNc2cc(-c3ccc(C(F)(F)F)c(Cl)c3)ncn2)ccc1F` [Example 62, (1R)-5-{1-Amino-2-[6-(3-chloro-4-trifluoromethyl-phenyl)-pyrimidin-4-ylamino]-ethyl}-2-fluoro-benzonitrile], the IC50 on Rat FAAH-1 was found to be 300 nM; at FAAH it was 320 nM.
With `CCOc1ccc(-c2cc(NC[C@H](N)c3ccccc3)ncn2)cc1C(F)(F)F` [Example 10, (1R)—N^2-{6-[4-Ethoxy-3-(trifluoromethyl)phenyl]pyrimidin-4-yl}-1-phenylethane-1,2-diamine hydrochloride acid salt], the figures for the IC50 against Rat FAAH-1 and on FAAH were 84 nM and 26 nM, respectively.
Regarding `N[C@H](CNc1cc(-c2ccc(C(F)(F)F)c(Cl)c2)ncn1)c1ccccc1` [Example 3, (1S)—N^2-{6-[3-Chloro-4-(trifluoromethyl)phenyl]pyrimidin-4-yl}-1-phenylethane-1,2-diamine hydrochloride acid salt], the results for the IC50 at Rat FAAH-1 and on FAAH were 2400 nM and 1300 nM, respectively.
Take `N[C@@H](CNc1cc(-c2ccc(C(F)(F)F)c(F)c2)ncn1)c1ccccc1` [Example 4, (1R)—N^2-{6-[3-Fluoro-4-(trifluoromethyl)phenyl]pyrimidin-4-yl}-1-phenylethane-1,2-diamine hydrochloride acid salt]: the figures for the IC50 against Rat FAAH-1 and at FAAH were 320 nM and 100 nM, respectively.
For the compound `N[C@@H](CNc1cc(-c2ccc(C(F)(F)F)c(Cl)c2)ncn1)c1ccccc1` [Example 1, (1R)—N^2-{6-[3-Chloro-4-(trifluoromethyl)phenyl]pyrimidin-4-yl}-1-phenylethane-1,2-diamine hydrochloride acid salt], the IC50 on Rat FAAH-1 worked out at 60 nM; on FAAH, 50 nM.
For the compound `CCOc1ccc(-c2cc(NC[C@H](N)c3ccccc3)ncn2)cc1` [Example 19, (1R)—N^2-[6-(4-Ethoxyphenyl)pyrimidin-4-yl]-1-phenylethane-1,2-diamine hydrochloride acid salt], the values for the IC50 on Rat FAAH-1 and on FAAH were 1000 nM and 70 nM, respectively.
For `N[C@@H](CNc1cc(-c2ccc(C(F)(F)F)c(Cl)c2)ncn1)c1ccc2c(c1)OC(F)(F)O2` [Example 32, (1R)—N^2-[6-(3-Chloro-4-trifluoromethyl-phenyl)-pyrimidin-4-yl]-1-(2,2-difluoro-benzo[1,3]dioxol-5-yl)-ethane-1,2-diamine], the IC50 against Rat FAAH-1 came to 11 nM; at FAAH, 30 nM.
The corresponding values for `CN(C)S(=O)(=O)c1ccc(-c2cc(NC[C@H](N)c3ccccc3)ncn2)cc1` [Example 23, 4-(6-{[(2R)-2-Amino-2-phenylethyl]amino}pyrimidin-4-yl)-N,N-dimethylbenzenesulfonamide hydrochloride acid salt] are 1600 nM and 113 nM.
